According to ChEMBL document CHEMBL5678818, “Discovery of potent SOS1 inhibitors that block RAS activation via disruption of the RAS-SOS1 interaction” (Proc Natl Acad Sci U S A, 2019):

Key:
[1] = molecular target: Serine/threonine-protein kinase PAK 2 (Homo sapiens) (UniProt Q13177); test: Inhibition of PAK2 (unknown origin) assessed as residual activity at 1000 nM by KINOMEscan analysis relative to control
[2] = system: Tyrosine-protein kinase ABL1 (Homo sapiens), P00519 [Q252H]; test: Inhibition of phosphorylated ABL1 Q252H mutant (unknown origin) assessed as residual activity at 1000 nM by KINOMEscan analysis relative to control
[3] = molecular target: Cyclin-dependent kinase 13 (Homo sapiens) (UniProt Q14004); test: Inhibition of CDC2L5 (unknown origin) assessed as residual activity at 1000 nM by KINOMEscan analysis relative to control
[4] = system: Epidermal growth factor receptor (Homo sapiens), P00533 [UNDEFINED MUTATION]; test: Inhibition of EGFR L747-S752del/P753S mutant (unknown origin) assessed as residual activity at 1000 nM by KINOMEscan analysis relative to control
[5] = molecular target: Casein kinase I isoform delta (Homo sapiens) (UniProt P48730); test: Inhibition of CSNK1D (unknown origin) assessed as residual activity at 1000 nM by KINOMEscan analysis relative to control
[6] = molecular target: Bone morphogenetic protein receptor type-1A (Homo sapiens) (UniProt P36894); test: Inhibition of BMPR1A (unknown origin) assessed as residual activity at 1000 nM by KINOMEscan analysis relative to control
[7] = system: Epidermal growth factor receptor (Homo sapiens), P00533 [L858R,T790M]; test: Inhibition of EGFR L858R/T790M mutant (unknown origin) assessed as residual activity at 1000 nM by KINOMEscan analysis relative to control
[8] = molecular target: T1, MAP/microtubule affinity-regulating kinase 4 (Homo sapiens) (UniProt Q96L34); test: Inhibition of MARK4 (unknown origin) assessed as residual activity at 1000 nM by KINOMEscan analysis relative to control
T1 sequence (whole entry): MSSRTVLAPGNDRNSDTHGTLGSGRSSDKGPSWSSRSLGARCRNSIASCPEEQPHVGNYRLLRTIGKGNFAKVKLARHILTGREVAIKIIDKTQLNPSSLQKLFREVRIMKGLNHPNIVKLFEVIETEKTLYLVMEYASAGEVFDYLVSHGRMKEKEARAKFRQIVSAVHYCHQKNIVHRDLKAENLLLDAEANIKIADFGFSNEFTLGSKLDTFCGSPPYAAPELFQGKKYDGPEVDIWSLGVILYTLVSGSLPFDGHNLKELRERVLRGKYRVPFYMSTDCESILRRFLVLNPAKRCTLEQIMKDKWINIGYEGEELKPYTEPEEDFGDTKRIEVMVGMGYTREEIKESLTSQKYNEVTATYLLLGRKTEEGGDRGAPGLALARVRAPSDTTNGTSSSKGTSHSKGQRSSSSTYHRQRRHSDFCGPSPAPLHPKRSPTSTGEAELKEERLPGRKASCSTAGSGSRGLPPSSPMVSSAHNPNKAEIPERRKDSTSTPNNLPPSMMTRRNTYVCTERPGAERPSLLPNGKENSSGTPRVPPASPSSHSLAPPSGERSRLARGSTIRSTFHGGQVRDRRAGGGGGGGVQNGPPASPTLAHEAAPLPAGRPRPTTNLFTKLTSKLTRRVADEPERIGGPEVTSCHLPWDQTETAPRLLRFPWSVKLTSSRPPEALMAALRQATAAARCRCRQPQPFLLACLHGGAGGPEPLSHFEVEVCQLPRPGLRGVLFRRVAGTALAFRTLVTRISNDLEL

[9] = molecular target: Protein-tyrosine kinase 2-beta (Homo sapiens) (UniProt Q14289); test: Inhibition of PYK2 (unknown origin) assessed as residual activity at 1000 nM by KINOMEscan analysis relative to control
Homo sapiens = species on record: Homo sapiens; test: Inhibition of JNK1 (unknown origin) assessed as residual activity at 1000 nM by KINOMEscan analysis relative to control
[10] = molecular target: Ribosomal protein S6 kinase alpha-4 (Homo sapiens) (UniProt O75676); test: Inhibition of C-terminal RPS6KA4 […] domain 2 (unknown origin) assessed as residual activity at 1000 nM by KINOMEscan analysis relative to control
[11] = molecular target: Calcium/calmodulin-dependent protein kinase type II subunit beta (Homo sapiens) (UniProt Q13554); test: Inhibition of CAMK2B (unknown origin) assessed as residual activity at 1000 nM by KINOMEscan analysis relative to control
[12] = molecular target: Mitotic checkpoint serine/threonine-protein kinase BUB1 (Homo sapiens) (UniProt O43683); test: Inhibition of BUB1 (unknown origin) assessed as residual activity at 1000 nM by KINOMEscan analysis relative to control
[13] = molecular target: RAF proto-oncogene serine/threonine-protein kinase (Homo sapiens) (UniProt P04049); test: Inhibition of RAF1 (unknown origin) assessed as residual activity at 1000 nM by KINOMEscan analysis relative to control
[14] = molecular target: Glycogen synthase kinase-3 alpha (Homo sapiens) (UniProt P49840); test: Inhibition of GSK3A (unknown origin) assessed as residual activity at 1000 nM by KINOMEscan analysis relative to control

Chain of Mitotic checkpoint serine/threonine-protein kinase BUB1 (Homo sapiens) (O43683 whole entry, looked up): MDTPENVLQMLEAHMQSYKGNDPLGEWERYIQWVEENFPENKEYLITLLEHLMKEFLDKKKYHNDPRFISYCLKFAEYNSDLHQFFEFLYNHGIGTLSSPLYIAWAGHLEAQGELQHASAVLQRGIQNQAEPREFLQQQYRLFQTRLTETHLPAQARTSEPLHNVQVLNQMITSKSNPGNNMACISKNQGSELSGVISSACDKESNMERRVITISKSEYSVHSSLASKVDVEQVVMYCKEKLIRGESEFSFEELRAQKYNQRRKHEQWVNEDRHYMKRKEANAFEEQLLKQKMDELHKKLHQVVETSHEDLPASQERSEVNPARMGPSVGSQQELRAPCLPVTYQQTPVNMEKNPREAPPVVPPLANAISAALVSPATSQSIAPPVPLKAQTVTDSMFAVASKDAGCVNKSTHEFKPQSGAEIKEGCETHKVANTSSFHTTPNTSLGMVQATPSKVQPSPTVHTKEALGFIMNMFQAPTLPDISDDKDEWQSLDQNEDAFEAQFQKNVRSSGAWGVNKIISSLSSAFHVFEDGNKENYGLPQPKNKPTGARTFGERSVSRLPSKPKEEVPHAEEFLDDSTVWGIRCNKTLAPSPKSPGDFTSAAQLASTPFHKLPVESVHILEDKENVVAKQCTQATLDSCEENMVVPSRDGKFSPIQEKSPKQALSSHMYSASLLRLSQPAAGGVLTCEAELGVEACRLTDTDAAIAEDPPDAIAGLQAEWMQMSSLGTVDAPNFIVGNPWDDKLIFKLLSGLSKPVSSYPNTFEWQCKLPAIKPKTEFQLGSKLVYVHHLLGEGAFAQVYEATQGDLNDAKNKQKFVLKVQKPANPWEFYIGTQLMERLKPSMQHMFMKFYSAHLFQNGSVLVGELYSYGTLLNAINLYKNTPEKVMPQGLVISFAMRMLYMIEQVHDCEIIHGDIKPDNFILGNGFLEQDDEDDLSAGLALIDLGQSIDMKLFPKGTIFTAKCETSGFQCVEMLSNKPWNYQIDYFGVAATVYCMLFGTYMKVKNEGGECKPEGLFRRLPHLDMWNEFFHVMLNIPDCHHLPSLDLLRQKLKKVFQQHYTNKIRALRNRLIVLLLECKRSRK
Chain of Calcium/calmodulin-dependent protein kinase type II subunit beta (Homo sapiens) (Q13554 whole entry): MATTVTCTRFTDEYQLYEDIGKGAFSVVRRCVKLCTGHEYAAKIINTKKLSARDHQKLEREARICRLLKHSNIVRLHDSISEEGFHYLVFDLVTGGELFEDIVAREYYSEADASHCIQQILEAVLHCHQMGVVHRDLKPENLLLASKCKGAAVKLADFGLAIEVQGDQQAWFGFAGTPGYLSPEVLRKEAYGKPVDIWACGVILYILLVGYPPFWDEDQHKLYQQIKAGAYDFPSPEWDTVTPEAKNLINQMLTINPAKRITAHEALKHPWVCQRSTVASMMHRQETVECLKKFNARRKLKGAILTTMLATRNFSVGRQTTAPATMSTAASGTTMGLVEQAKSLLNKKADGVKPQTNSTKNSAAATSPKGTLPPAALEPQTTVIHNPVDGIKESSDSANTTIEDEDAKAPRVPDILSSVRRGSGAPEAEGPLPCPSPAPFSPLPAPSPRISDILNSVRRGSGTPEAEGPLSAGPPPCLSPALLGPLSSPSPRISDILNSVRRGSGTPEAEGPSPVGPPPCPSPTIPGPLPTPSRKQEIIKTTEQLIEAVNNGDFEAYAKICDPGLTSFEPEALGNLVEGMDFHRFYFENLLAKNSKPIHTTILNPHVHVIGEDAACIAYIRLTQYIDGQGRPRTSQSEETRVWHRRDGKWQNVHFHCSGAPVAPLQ
Chain of Ribosomal protein S6 kinase alpha-4 (Homo sapiens) (O75676 whole entry, looked up): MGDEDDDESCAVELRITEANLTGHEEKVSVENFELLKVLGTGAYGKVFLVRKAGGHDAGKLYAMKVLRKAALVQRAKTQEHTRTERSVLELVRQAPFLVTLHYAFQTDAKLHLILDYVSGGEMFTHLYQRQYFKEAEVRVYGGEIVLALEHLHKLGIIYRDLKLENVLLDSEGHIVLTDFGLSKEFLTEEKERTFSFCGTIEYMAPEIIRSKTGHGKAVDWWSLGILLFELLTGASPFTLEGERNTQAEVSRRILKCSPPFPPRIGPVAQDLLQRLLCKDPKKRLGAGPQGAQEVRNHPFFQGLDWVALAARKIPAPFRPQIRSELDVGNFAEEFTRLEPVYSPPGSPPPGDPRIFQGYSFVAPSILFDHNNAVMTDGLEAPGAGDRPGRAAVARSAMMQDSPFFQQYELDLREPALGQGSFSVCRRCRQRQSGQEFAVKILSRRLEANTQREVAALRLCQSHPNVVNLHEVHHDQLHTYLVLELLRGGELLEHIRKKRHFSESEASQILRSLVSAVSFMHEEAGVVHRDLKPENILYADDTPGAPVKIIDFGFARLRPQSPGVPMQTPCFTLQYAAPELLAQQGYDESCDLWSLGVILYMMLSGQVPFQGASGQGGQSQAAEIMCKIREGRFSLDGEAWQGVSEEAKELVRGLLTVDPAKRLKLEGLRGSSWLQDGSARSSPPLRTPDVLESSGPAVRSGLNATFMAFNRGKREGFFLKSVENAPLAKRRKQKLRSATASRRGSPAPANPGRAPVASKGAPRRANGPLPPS
Chain of Serine/threonine-protein kinase PAK 2 (Homo sapiens) (Q13177 whole entry): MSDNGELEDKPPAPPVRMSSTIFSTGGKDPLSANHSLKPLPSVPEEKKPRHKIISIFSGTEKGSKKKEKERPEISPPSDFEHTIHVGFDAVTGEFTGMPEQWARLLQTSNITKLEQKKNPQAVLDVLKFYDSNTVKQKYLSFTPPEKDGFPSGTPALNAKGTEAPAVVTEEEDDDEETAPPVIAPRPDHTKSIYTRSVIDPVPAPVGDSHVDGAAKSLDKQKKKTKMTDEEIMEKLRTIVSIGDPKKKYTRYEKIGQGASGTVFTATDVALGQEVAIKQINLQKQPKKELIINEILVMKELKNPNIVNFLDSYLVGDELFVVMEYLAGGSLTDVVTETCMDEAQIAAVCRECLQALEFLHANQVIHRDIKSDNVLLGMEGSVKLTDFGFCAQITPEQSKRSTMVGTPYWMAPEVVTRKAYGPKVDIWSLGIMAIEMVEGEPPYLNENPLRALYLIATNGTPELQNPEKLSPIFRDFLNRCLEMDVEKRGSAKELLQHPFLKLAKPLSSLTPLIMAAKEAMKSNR
Chain of RAF proto-oncogene serine/threonine-protein kinase (Homo sapiens) (P04049 whole entry): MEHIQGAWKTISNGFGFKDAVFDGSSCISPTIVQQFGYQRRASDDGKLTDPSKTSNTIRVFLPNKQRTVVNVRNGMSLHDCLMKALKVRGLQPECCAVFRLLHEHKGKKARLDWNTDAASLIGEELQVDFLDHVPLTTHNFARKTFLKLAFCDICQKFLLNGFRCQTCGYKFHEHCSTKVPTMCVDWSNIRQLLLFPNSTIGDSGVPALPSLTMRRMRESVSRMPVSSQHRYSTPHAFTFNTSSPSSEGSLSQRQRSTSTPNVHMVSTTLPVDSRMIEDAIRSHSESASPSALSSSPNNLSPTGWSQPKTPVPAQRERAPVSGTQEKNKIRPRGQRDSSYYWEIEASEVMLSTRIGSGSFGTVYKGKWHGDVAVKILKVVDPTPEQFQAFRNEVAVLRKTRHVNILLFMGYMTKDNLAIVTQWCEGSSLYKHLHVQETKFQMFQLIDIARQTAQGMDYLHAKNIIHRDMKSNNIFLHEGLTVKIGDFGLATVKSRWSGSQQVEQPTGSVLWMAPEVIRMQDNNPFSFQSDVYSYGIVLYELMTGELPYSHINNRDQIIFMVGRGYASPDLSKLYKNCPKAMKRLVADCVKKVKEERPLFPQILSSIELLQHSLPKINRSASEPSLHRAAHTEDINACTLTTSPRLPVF
Chain of Protein-tyrosine kinase 2-beta (Homo sapiens) (Q14289 whole entry, looked up): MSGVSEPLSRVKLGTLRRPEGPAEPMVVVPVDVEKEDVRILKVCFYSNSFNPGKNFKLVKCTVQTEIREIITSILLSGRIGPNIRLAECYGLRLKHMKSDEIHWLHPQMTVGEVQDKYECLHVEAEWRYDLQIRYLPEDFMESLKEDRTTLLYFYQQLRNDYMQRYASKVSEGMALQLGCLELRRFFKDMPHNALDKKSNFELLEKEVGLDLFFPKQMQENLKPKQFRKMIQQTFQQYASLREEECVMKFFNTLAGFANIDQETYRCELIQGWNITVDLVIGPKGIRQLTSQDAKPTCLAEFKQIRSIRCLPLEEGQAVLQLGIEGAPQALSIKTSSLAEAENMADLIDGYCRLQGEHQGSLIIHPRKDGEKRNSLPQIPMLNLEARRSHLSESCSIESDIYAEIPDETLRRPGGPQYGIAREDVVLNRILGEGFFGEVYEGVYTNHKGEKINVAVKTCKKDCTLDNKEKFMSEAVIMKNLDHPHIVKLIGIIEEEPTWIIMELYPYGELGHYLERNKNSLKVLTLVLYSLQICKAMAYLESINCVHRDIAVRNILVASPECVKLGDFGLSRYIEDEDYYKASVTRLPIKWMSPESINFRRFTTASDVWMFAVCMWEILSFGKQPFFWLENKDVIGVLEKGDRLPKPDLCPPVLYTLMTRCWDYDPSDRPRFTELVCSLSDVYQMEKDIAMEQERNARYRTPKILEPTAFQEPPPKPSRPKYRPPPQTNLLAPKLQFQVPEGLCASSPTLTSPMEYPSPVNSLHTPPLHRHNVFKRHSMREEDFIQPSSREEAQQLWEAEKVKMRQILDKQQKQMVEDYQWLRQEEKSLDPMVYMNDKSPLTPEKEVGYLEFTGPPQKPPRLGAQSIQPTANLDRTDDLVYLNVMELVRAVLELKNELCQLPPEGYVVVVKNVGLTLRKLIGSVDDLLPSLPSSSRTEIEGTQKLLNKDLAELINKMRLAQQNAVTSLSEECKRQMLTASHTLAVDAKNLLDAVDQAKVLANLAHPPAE

`COc1cc2nc(C)nc(N[C@H](C)c3cccc(-c4cn[nH]c4)c3)c2cc1OC` gave an Activity [1] of 67%, an Activity [2] of 95% and an Activity [3] of 87%. For the same compound, the Activity [4] was 93%, the Activity [5] was 100% and the Activity [6] was 97%. It also gave an Activity [7] of 92%, an Activity [8] of 88% and an Activity [9] of 38%. It also gave an Activity (Homo sapiens) of 64%, an Activity [10] of 100% and an Activity [11] of 97%. For the same compound, the Activity [12] was 100%, the Activity [13] was 100% and the Activity [14] was 95%.

`COc1cc2ncnc(N[C@H](C)c3cccc4ccccc34)c2cc1OC` showed an Activity [1] of 82%, an Activity [2] of 92% and an Activity [3] of 97%. For the same compound, the Activity [4] was 9.3%, the Activity [5] was 95% and the Activity [6] was 100%. For the same compound, the Activity [7] was 74%, the Activity [8] was 66% and the Activity [9] was 100%. It also gave an Activity (Homo sapiens) of 100%, an Activity [10] of 82% and an Activity [11] of 96%. It also gave an Activity [12] of 100%, an Activity [13] of 94% and an Activity [14] of 70%.
